10 compounds from ChEMBL document CHEMBL1949615, “Dual β2-adrenoceptor agonists-PDE4 inhibitors for the treatment of asthma and COPD” (Bioorg Med Chem Lett, 2012) can be followed below.

Activity calls are given as the source filed them. The calls are words filed in the database; no cut-off is given here.

The target in test [1] is Beta-2 adrenergic receptor (Cavia porcellus) (UniProt Q8K4Z4). The test is described as follows: Agonist activity at beta2 adrenoceptor in guinea pig assessed as relaxation of histamine-induced tracheal ring contraction in the presence of inverse agonist ICI-118551. The format is functional, tissue-based. The settings on record: Trachea.
Test [2] concerns the target T1, Beta-2 adrenergic receptor (Cavia porcellus, UniProt Q8K4Z4). The test is described as follows: Competitive antagonist activity at beta2-adrenoceptor in guinea pig tracheal ring in the presence of N-(5-((1R)-2-(4-(4-(3,4-[…])-1-oxo-4a,5,6,7,8,8a-hexahydrophthalazin-2(1H)-yl)butylamino-1-hydroxyethyl)-2-hydroxyphenyl)formamide. Type of test: functional. The settings on record: read-out: pA2 (converted).

Test [3] has as its target T1, Beta-2 adrenergic receptor. Briefly: Agonist activity at beta2 adrenoceptor in guinea pig assessed as relaxation of histamine-induced tracheal ring contraction. Type of test: functional, tissue-based, Trachea.
In test [4] the target is 3',5'-cyclic-AMP phosphodiesterase 4B (Homo sapiens, UniProt Q07343). The test is described as follows: Inhibition of human recombinant PDE4B2-mediated cAMP hydrolysis for 30 mins by colorimetric assay.
Test [5] can be described thus: Inhibition of PDE4.

T1 sequence (Q8K4Z4 whole entry): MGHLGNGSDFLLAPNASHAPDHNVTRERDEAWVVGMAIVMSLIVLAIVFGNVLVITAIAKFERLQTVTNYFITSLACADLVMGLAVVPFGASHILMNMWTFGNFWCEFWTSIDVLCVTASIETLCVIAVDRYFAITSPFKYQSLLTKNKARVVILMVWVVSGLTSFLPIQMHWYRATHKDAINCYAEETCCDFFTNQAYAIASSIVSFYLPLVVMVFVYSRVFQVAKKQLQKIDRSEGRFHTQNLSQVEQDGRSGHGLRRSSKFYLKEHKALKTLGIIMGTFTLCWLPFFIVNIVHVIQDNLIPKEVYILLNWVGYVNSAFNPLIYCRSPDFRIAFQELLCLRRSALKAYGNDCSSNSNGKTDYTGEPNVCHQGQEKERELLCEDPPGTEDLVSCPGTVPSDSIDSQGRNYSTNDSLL
3',5'-cyclic-AMP phosphodiesterase 4B, sequence (Q07343 whole entry): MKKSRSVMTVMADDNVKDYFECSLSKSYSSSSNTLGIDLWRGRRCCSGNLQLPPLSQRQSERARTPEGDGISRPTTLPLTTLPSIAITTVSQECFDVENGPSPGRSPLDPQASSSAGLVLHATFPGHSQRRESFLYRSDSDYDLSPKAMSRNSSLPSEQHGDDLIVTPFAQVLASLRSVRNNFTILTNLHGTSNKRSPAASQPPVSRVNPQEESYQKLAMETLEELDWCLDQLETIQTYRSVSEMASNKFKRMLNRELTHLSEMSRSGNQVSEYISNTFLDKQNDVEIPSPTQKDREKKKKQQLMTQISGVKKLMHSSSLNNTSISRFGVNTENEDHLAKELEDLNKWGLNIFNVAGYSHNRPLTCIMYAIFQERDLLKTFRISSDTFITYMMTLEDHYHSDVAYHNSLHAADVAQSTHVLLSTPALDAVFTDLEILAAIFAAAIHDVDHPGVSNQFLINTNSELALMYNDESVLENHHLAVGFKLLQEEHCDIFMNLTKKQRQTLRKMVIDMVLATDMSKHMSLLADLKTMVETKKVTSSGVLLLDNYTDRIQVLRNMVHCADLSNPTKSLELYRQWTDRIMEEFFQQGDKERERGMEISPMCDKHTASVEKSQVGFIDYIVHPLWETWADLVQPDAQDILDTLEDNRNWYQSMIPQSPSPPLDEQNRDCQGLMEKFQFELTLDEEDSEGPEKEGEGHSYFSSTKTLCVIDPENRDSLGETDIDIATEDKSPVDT
Beta-2 adrenergic receptor (Cavia porcellus), sequence (Q8K4Z4 whole entry, looked up): as the sequence (Q8K4Z4 whole entry) above

A word on the EC50: it is the concentration that produces a half-maximal response. Broadly, the IC50 is the midpoint of a concentration-inhibition curve. For `COc1ccc(C2=NN(CCCCNC[C@H](O)c3ccc(O)c(NC=O)c3)C(=O)C3CCCCC23)cc1OC` (stereo partly drawn), the result in test [1] was inactive. For the same compound, in test [2], the Kb was 0.708 nM. Moreover, the EC50 in test [3] was 0.1 nM. Moreover, the IC50 in test [4] is 265 nM.

In the case of `COc1ccc(C2=NN(CCCCNC[C@@H](O)c3ccc(O)c(NC=O)c3)C(=O)C3CCCCC23)cc1OC` (stereo partly drawn), the EC50 in test [3] was 126 nM. Also, in test [4], the IC50 amounted to 284 nM.

Consider `COc1ccc(C2=NN(CCNCC(O)c3ccc(O)c(NC=O)c3)C(=O)C3CCCCC23)cc1OC` (stereo not drawn), for which the EC50 in test [3] was 20 nM. Besides, in test [4], the IC50 is 280 nM.

With `CC(C)NCC(O)c1ccc(O)c(O)c1` (stereo not drawn) [ISOPROTERENOL], in test [3], the EC50 is 31.6 nM.

As for `O=c1[nH]ncc2ccccc12` [PHTHALAZINONE], the IC50 in test [4] turned out to be 520 nM.

As for `COc1ccc(C2=NN(CCCCCCNCC(O)c3ccc(O)c(NC=O)c3)C(=O)C3CCCCC23)cc1OC` (stereo not drawn), the EC50 in test [3] is 50.1 nM. For the same compound, the IC50 in test [4] worked out at 251 nM.

`COc1ccc([C@]2(C#N)CC[C@@H](C(=O)O)CC2)cc1OC1CCCC1` [CILOMILAST] returned a concentration for half-maximal inhibition (IC50) in test [5] of 95 nM.

As to `COc1ccc(C2=NNC(=O)C3CCCCC23)cc1OC` (stereo not drawn), the IC50 in test [4] was 520 nM.

In the case of `COc1ccc(C2=NN(CCCCNCC(O)c3ccc(O)c(NC=O)c3)C(=O)C3CCCCC23)cc1OC` (racemic), the EC50 in test [3] is 0.501 nM. In addition, the IC50 in test [4] was 278 nM.

As for `COc1ccc(C2=NN(CCCCCNCC(O)c3ccc(O)c(NC=O)c3)C(=O)C3CCCCC23)cc1OC` (stereo not drawn), in test [3], the EC50 was 20 nM. Further, in test [4], the IC50 amounted to 257 nM.
